Results taken from paper PMC3131588, “Effects of Onion (Allium cepa L.) Extract Administration on Intestinal α-Glucosidases Activities and Spikes in Postprandial Blood Glucose Levels in SD Rats Model” (International Journal of Molecular Sciences, 2011).

Key:
[1] = target: T1, rat intestinal α-glucosidase; assay: p-nitrophenyl-α-D-glucopyranoside hydrolysis, absorbance at […] nm; assay type: biochemical; conditions: 5 mM p-nitrophenyl-α-D-glucopyranoside stock (50 μL), 0.1 M phosphate pH 6.9, 25 °C; crude rat intestinal enzyme; quercetin bought as dihydrate
T1 construct: gene Mgam; native enzymes in crude supernatant of rat intestinal acetone powder (Sigma-Aldrich), EC 3.2.1.20; not resolved to one gene product

rat intestinal maltase = target: T2, rat intestinal maltase; assay: maltose hydrolysis, liberated glucose by glucose oxidase method; assay type: biochemical; conditions: maltose 0.4 mg/mL, 0.1 M phosphate pH 7.0, 37 °C, 30 min; crude rat intestinal enzyme; quercetin bought as dihydrate
T2 construct: gene Mgam; native enzymes in crude supernatant of rat intestinal acetone powder (Sigma-Aldrich); maltase activity not resolved to one gene product
Excerpt: maltose hydrolysis, liberated glucose by glucose oxidase method on rat intestinal maltase

## O=c1c(O)c(-c2ccc(O)c(O)c2)oc2cc(O)cc(O)c12 [quercetin, 3,3′,4′,5,7-Pentahydroxyflavone dihydrate]
[1]
  IC50: 0.15 mg/mL
Rat intestinal maltase
  IC50: 0.07 mg/mL
